# “Also recorded” adds a separate entry of the source.
# What was measured:
# [1] = system: CSM14.1 cells; assay: Tunicamycin-induced cell death of CSM14.1 cells; assay type: cell-based, rat
# Experimental: CSM 14.1 cells were plated at a density of 3×10^3 cells/well in 96-well plates and incubated overnight. Cells were pre-incubated with 25 μM of each compound or 100 μM salubrinal for two hours, followed by […] tunicamycin treatment. 72 hours later, cell death rates were measured by flow cytometry analysis. Annexin V-negative population was considered as survivors. In FIG. 13, the white column represents 0.5% DMSO control showing 24% of survival, and the gray column 100 μM salubrinal. Black columns are data from each compound (25 μM) (compound numbers refer to the compounds in Table 9).
# For the experiments shown in FIG. 18, undifferentiated CSM 14.1 cells were plated at 3,000 cells per well in 96-well plates (for the ATP assay) or at 1×10^4 cells per well in 24-well plates (for flow cytometry). The next day, cells were treated with DMSO (0.5%) or hit compounds 25 μM of a compound with 0.5% DMSO final concentration) for two hours, followed by treatment with various cell death-inducing reagents, including 15 μM Thapsigargin (TG) for 24 hrs, 10 μg/mL tunicamycin (TU) for 72 hrs, 2.5 μM staurosporine (STS) for 24 hrs, 50 μM VP16 for 48 hrs, or 30 ng/mL TNF plus 10 μg/mL cyclohexamide (CHX) for 24 hrs. Cellular ATP content was measured for staurosporine samples and TNF/CHX samples, normalizing data relative to cells treated with DMSO alone (the control) and presenting as a percentage of control. For measuring cell death resulting from treatment with tunicamycin and VP16, flow cytometry was used. All assays were performed in triplicate (mean ±SD).
# [2] = system: HeLa human cervical cancer; assay: Thapsigargin-induced death of HeLa cells, ATP content assay; assay type: cell-based
# Experimental: (§1) In addition to CSM14.1 cells, when tested at 25 μM, Compound 5962123 protected by >50% against thapsigargin-induced death of several tumor cell lines (HeLa human cervical cancer, SW1 melanoma cell, PPC1, human prostate cancer), mouse neural stem cell C17.2 (both differentiated [neuronal phenotype] and non-differentiated [stem cell phenotype]) as determined by ATP content assay, and primary rat cortical neurons as determined by microscopy assay measuring the percentage of NeuN-immunopositive cells with either normal or apoptotic nuclear morphology (Hoechst dye staining).
# (§2) For PC12, cells were stimulated with 20 ng/ml NGF for five days; for C17.2, cells were stimulated with serum reduction, and 1% N2 incubation for three days; for CSM14.1, cells were cultured at 39° C. for 5-7 days.
# [3] = system: PPC1, human prostate cancer; assay: Thapsigargin-induced death of PPC1 cells, ATP content assay; assay type: cell-based
# Experimental: as §1, §2
# [4] = system: PC12 rat pheochromocytoma cells; assay: Thapsigargin-induced death of PC12 cells (undifferentiated and differentiated), ATP content assay; assay type: cell-based; design: key to Cytoprotective activity, PC12 (Result): +indicates >50% rescue of cell viability relative to untreated cells not exposed to thapsigargin at compound concentration of ≦25 μM; E indicates compound enhanced thapsigargin-induced death
# Experimental: as §1, §2
# [5] = system: mouse neural stem cell C17.2; assay: Thapsigargin-induced death of C17.2 cells (undifferentiated and differentiated), ATP content assay; assay type: cell-based
# Experimental: as §1, §2
# [6] = system: phospho-eIF2α; assay: Immunoblotting of eIF2α phosphorylation in thapsigargin-treated CSM14.1 cells; assay type: cell-based, rat; conditions: thapsigargin-stimulated CSM14.1, listed as CID-2878746
# Source text: After confirming the pathway selectivity of compounds, additional downstream assays can be performed to map the specific signal transduction pathway inhibited by the compounds. In this regard, various antibody reagents are commercially available for assessing the status of the three major pathways known to be activated by ER stress: (1) PERK, (2) Ire1, and (3) ATF6 (Xu et al., J. Clinical Invest., 115:2656-2664, 2005). Immunoblotting experiments can be performed to assess the expression or phosphorylation (using phospho-specific antibodies) of marker proteins in these pathways. […] Cell lysates were prepared and analyzed by SDS-PAGE/immunoblotting using antibodies specific for phospho-c-Jun, phospho-eIF2α, phospho-p38 MAPK, and tubulin (a loading control). […] After two hrs, cell lysates were prepared, normalized for protein content, and either analyzed by SDS-PAGE/immunoblotting using anti-p38-MAPK pan-reactive antibody or phospho-specific antibody with ECL-based detection, followed by densitometry analysis of x-ray films, normalizing phosphor-p38 MAPK relative to total p38 MAPK, or analyzed using a meso-scale instrument from MSD and a procedure in which total p38 MAPK is captured on plates, and the relative amounts of phosphorylated protein were determined using phospho-specific antibody (MSD catalog #K15112D1). […]
# [7] = system: ATF4; assay: Thapsigargin-induced expression of ATF4 (immunoblotting); assay type: cell-based, rat; conditions: listed as CID-2878746
# [8] = system: CHOP; assay: Thapsigargin-induced expression of CHOP; assay type: cell-based, rat; conditions: listed as CID-2878746
# Experimental: CSM 14.1 cells were cultured with DMSO or with 25 μM of hit compounds for two hours followed by treatment with thapsigargin (15 μM). Cell lysates were prepared and analyzed by SDS-PAGE/immunoblotting using antibodies specific for: c-Jun, phosphor-c-Jun (ser 73), eIF2a, phosphor-eIF2a (ser 51), p38 MAPK, phosphor-p38 MAPK (Thr180/Tyr182), ATF-6, CHOP and tubulin (loading control). ER stress-induced activation of C-Jun and p38 MAPK is suppressed by the 11 hit compounds.
# [9] = thapsigargin 15 μM, ATP content, compound ≦25 μM
compound,measurement,setting,value
"CCN(CC)c1ccc(C2Nc3ccccc3NC3=C2C(=O)CC(c2ccccc2)C3)cc1 (stereo not shown) [Compound 5962123, 6-(4-diethylaminophenyl)-9-phenyl-5,6,8,9,10,11-hexahydrobenzo[c][1,5]benzodiazepin-7-one]",Inhibition of tunicamycin-induced cell death,"[1]; CSM14.1 cells, annexin V flow cytometry where stated",inhibits; also recorded: confirmed
same,"Cytoprotective activity, stimulus Tunicamycin (Result)","[1]; readout Annexin, CSM 14.1, compound ≦25 μM",+ (+indicates ≧50% rescue of cell viability relative to untreated cells not exposed to thapsigargin at compound concentration of ≦25 μM)
same,IC50,"[1]; undifferentiated CSM14.1, ATP content assay, read-out: IC50, inhibition of tunicamycin-induced cell death",10 µM
same,"Protection against thapsigargin-induced death, HeLa","[2]; 25 μM, ATP content assay",> 50%
same,Cytoprotective activity in thapsigargin-treated HeLa,[2]; ATP content assay,demonstrated
same,"Cytoprotective activity, HeLa (Result)",[2]; [9],+ (+indicates >50% rescue of cell viability relative to untreated cells not exposed to thapsigargin at compound concentration of ≦25 μM)
same,"Protection against thapsigargin-induced death, PPC1","[3]; 25 μM, ATP content assay",> 50%
same,Cytoprotective activity in thapsigargin-treated PPC-1,[3]; ATP content assay,demonstrated
same,"Cytoprotective activity, PPC1 (Result)",[3]; [9],+ (+indicates >50% rescue of cell viability relative to untreated cells not exposed to thapsigargin at compound concentration of ≦25 μM)
same,Protection of PC12 cells from thapsigargin-induced cell death,"[4]; 25 μM, undifferentiated or differentiated as stated, ATP content assay",does not protect
same,Effect on thapsigargin-treated undifferentiated PC12 cells,[4]; undifferentiated PC12,paradoxical cell death-promoting activity
same,"Cytoprotective activity, PC12 (Result)","[4]; undifferentiated, thapsigargin 15 μM, ATP content, compound ≦25 μM",E
same,Activity in differentiated C17.2 cells treated with thapsigargin,"[5]; 25 μM, ATP content assay",confirmed
same,"Protection against thapsigargin-induced death, C17.2","[5]; 25 μM, both differentiated and non-differentiated, ATP content assay",> 50%
same,"Cytoprotective activity, C17.2 diff (Result)","[5]; differentiated, thapsigargin 10 μM, ATP content, compound ≦25 μM",+ (+indicates >50% rescue of cell viability relative to untreated cells not exposed to thapsigargin at compound concentration of ≦25 μM)
same,"Cytoprotective activity, C17.2 (Result)","[5]; undifferentiated, thapsigargin 10 μM, ATP content, compound ≦25 μM",+ (+indicates >50% rescue of cell viability relative to untreated cells not exposed to thapsigargin at compound concentration of ≦25 μM)
same,Phosphorylation of eIF2alpha (Ser 51),[6],not inhibited
same,Thapsigargin-induced expression of ATF4,[7],not inhibited
same,Thapsigargin-induced expression of CHOP,[8],not inhibited

# Source: patent publication US20080293699A1, “Inhibitors of thapsigargin-induced cell death” (priority 2007, published 2008)
